Experimental findings from patent publication US10758534B2 (Vertex Pharmaceuticals Incorporated, priority 2014, dated 2020) are described below.

Some results are limits rather than exact numbers.

T1 sequence (P13569 with tags, fused parts or gaps DEL508-508): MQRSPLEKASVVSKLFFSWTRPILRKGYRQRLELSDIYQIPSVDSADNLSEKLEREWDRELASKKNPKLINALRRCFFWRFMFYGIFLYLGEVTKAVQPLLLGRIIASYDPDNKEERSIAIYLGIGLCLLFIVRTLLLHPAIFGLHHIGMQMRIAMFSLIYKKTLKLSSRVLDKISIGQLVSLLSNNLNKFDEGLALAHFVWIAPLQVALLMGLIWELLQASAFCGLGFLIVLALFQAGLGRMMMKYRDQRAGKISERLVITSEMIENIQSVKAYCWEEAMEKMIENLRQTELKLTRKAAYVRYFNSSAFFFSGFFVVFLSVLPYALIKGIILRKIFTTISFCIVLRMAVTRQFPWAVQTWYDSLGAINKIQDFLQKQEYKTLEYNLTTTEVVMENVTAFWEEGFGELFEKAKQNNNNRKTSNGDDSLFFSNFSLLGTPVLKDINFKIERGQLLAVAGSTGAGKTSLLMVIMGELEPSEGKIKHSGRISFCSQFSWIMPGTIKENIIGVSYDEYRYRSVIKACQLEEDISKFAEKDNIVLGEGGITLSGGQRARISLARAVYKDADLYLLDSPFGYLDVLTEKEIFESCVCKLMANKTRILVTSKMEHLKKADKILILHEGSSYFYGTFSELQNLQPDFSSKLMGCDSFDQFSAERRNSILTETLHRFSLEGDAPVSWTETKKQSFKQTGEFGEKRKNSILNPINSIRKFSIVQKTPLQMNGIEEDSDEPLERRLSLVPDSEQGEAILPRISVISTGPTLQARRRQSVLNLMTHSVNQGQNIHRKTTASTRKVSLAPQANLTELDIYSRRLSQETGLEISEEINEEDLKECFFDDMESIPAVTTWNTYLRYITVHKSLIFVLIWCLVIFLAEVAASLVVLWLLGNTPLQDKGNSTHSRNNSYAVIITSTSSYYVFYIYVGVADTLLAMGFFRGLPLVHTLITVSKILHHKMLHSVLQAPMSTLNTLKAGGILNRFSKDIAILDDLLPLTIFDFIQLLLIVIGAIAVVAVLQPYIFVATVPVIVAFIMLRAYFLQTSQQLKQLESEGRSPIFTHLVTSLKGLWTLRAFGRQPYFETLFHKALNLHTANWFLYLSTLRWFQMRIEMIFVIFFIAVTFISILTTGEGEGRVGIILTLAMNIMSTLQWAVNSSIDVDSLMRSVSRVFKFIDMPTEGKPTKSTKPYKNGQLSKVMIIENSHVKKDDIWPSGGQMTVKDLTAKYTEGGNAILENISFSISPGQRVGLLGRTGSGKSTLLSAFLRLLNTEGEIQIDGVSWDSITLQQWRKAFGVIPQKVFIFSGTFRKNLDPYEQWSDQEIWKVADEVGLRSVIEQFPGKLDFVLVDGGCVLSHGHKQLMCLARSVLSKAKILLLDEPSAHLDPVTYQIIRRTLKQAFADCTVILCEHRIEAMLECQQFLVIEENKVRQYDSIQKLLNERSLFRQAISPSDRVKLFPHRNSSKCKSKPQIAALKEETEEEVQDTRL

One experiment has as its target T1, F508del (Homo sapiens, UniProt P13569, DEL508-508).
T1 construct: expressed in transfected cells
Kind of experiment: Protocol 2: FRET membrane potential optical assay (VIPR), identification of correction compounds. Type of experiment: cell-based. Conditions: F508del CFTR modulator activity; compounds of Table 1; read-out: EC30. The gist of the method:
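Corrector readout: membrane-potential FRET (CC2-DMPE donor, DiSBAC2(3) acceptor) on VIPR II after Cl⁻-free gluconate bath with 10 μM forskolin and 20 μM genistein. Before this, F508del-expressing NIH3T3 cells were exposed to test compound for 16 h at 37 °C without serum; 27 °C incubation served as temperature-correction control.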
Regarding `CC(C)COc1cc(F)cc(-c2ccc(C(=O)NS(=O)(=O)c3cccc(N)n3)c(N3C[C@@H](C)CC3(C)C)c2F)c1` [Compound 2634, N-[(6-amino-2-pyridyl)sulfonyl]-3-fluoro-4-(3-fluoro-5-isobutoxy-phenyl)-2-[(4S)-2,2,4-trimethylpyrrolidin-1-yl]benzamide], the concentration for an effect of 30% (EC30) (commonly the concentration at which the effect reaches the 30% level) is under 3000 nM.

As to `CC1CN(c2ncccc2C(=O)NS(=O)(=O)c2cccc(Nc3ccc(-c4cnco4)cc3)n2)C(C)(C)C1` (centres unmarked) [Compound 2546, N—[[6-(4-oxazol-5-ylanilino)-2-pyridyl]sulfonyl]-2-(2,2,4-trimethylpyrrolidin-1-yl)pyridine-3-carboxamide], the EC30 is under 3000 nM.

Consider `Cc1ccc(O)c(-c2ccc(C(=O)NS(=O)(=O)c3cccnc3N)c(N3C[C@@H](C)CC3(C)C)n2)c1` [Compound 2426, N-[(2-amino-3-pyridyl)sulfonyl]-6-(2-hydroxy-5-methyl-phenyl)-2-[(4S)-2,2,4-trimethylpyrrolidin-1-yl]pyridine-3-carboxamide], for which the EC30 was under 3000 nM.

On to `CC1CN(c2ncccc2C(=O)NS(=O)(=O)c2cccc(OCC3COc4ccccc4O3)n2)C(C)(C)C1` (centres unmarked) [Compound 2115, N—[[6-(2,3-dihydro-1,4-benzodioxin-3-ylmethoxy)-2-pyridyl]sulfonyl]-2-(2,2,4-trimethylpyrrolidin-1-yl)pyridine-3-carboxamide], for which the EC30 was under 3000 nM.

On to `CC1CN(c2ncccc2C(=O)NS(=O)(=O)c2cccc(Nc3cccc(C(C)(C)C)c3)n2)C(C)(C)C1` (centres unmarked) [Compound 2142, N—[[6-(3-tert-butylanilino)-2-pyridyl]sulfonyl]-2-(2,2,4-trimethylpyrrolidin-1-yl)pyridine-3-carboxamide], for which the EC30 is under 3000 nM.

In the case of `CC1CN(c2ncccc2C(=O)NS(=O)(=O)c2cccc(N3CCC(Cc4ccccc4)CC3)n2)C(C)(C)C1` (centres unmarked) [Compound 2107, N—[[6-(4-benzyl-1-piperidyl)-2-pyridyl]sulfonyl]-2-(2,2,4-trimethylpyrrolidin-1-yl)pyridine-3-carboxamide], the EC30 was under 3000 nM.

As for `COc1ccc(OC)c(-c2ccc(C(=O)NS(=O)(=O)c3cccnc3N)c(N3C[C@@H](C)CC3(C)C)n2)c1` [Compound 2195, N-[(2-amino-3-pyridyl)sulfonyl]-6-(2,5-dimethoxyphenyl)-2-[(4S)-2,2,4-trimethylpyrrolidin-1-yl]pyridine-3-carboxamide], the EC30 is under 3000 nM.

With `C[C@@H]1CN(c2nc(CCC3CC3)ccc2C(=O)NS(=O)(=O)c2cccnc2N)C(C)(C)C1` [Compound 2553, N-[(2-amino-3-pyridyl)sulfonyl]-6-(2-cyclopropylethyl)-2-[(4S)-2,2,4-trimethylpyrrolidin-1-yl]pyridine-3-carboxamide], the EC30 was under 3000 nM.

As for `CCCOc1ccc(-c2cnc(N3CC(C)CC3(C)C)c(C(=O)NS(=O)(=O)c3cccc(N)n3)c2)cc1C` (centres unmarked) [Compound 2095, N-[(6-amino-2-pyridyl)sulfonyl]-5-(3-methyl-4-propoxy-phenyl)-2-(2,2,4-trimethylpyrrolidin-1-yl)pyridine-3-carboxamide], the EC30 was under 3000 nM.

Take `CC(C)COc1cc(F)cc(-c2ccc(C(=O)NS(=O)(=O)c3cccc(N)n3)c(N3CC(F)C3)n2)c1` [Compound 2128, N-[(6-amino-2-pyridyl)sulfonyl]-2-(3-fluoroazetidin-1-yl)-6-(3-fluoro-5-isobutoxy-phenyl)pyridine-3-carboxamide]: the 30% effect concentration (EC30) lay in the range of 3000 to 10000 nM.

For the molecule `CC1CN(c2ncccc2C(=O)NS(=O)(=O)c2cccc(Nc3ccc(Cl)cc3Cl)n2)C(C)(C)C1` (centres unmarked) [Compound 2217, N—[[6-(2,4-dichloroanilino)-2-pyridyl]sulfonyl]-2-(2,2,4-trimethylpyrrolidin-1-yl)pyridine-3-carboxamide], the EC30 is under 3000 nM.

Take `COc1ccc(Nc2cccc(S(=O)(=O)NC(=O)c3cccnc3N3CC(C)CC3(C)C)n2)cc1OC` (centres unmarked) [Compound 2041, N—[[6-(3,4-dimethoxyanilino)-2-pyridyl]sulfonyl]-2-(2,2,4-trimethylpyrrolidin-1-yl)pyridine-3-carboxamide]: the EC30 was under 3000 nM.

As for `CC(C)COc1cc(F)cc(-c2ccc(C(=O)NS(=O)(=O)N3CC(C)(O)C3)c(N3C[C@@H](C)CC3(C)C)n2)c1` [Compound 2398, 6-(3-fluoro-5-isobutoxy-phenyl)-N-(3-hydroxy-3-methyl-azetidin-1-yl)sulfonyl-2-[(4S)-2,2,4-trimethylpyrrolidin-1-yl]pyridine-3-carboxamide], the EC30 is under 3000 nM.

For `Cc1cccc(COc2cccc(S(=O)(=O)NC(=O)c3cccnc3N3CC(C)CC3(C)C)n2)n1` (centres unmarked) [Compound 2294, N—[[6-[(6-methyl-2-pyridyl)methoxy]-2-pyridyl]sulfonyl]-2-(2,2,4-trimethylpyrrolidin-1-yl)pyridine-3-carboxamide], the 30% effect concentration (EC30) lay within 3000 to 10000 nM.

`C[C@@H]1CN(c2nc(-c3cccc(F)c3F)ccc2C(=O)NS(=O)(=O)c2ccc[nH]c2=O)C(C)(C)C1` [Compound 2162, 6-(2,3-difluorophenyl)-N-[(2-oxo-1H-pyridin-3-yl)sulfonyl]-2-[(4S)-2,2,4-trimethylpyrrolidin-1-yl]pyridine-3-carboxamide]: the EC30 was under 3000 nM.

Regarding `C[C@@H]1CN(c2nc3ccccc3cc2C(=O)NS(=O)(=O)c2ccc[nH]c2=O)C(C)(C)C1` [Compound 2405, N-[(2-oxo-1H-pyridin-3-yl)sulfonyl]-2-[(4S)-2,2,4-trimethylpyrrolidin-1-yl]quinoline-3-carboxamide], the EC30 was under 3000 nM.

The same experiment, now with this note: Table 3; compounds of Table 1 as modulators of CFTR activity; protocol not stated.
Take `CC(C)COc1cc(F)cc(-c2ccc(C(=O)NS(=O)(=O)c3cccc(N)n3)c(N3C[C@H](C)C[C@H](C)C3)n2)c1` [Compound 371, N-[(6-amino-2-pyridyl)sulfonyl]-2-[(3R,5S)-3,5-dimethyl-1-piperidyl]-6-(3-fluoro-5-isobutoxy-phenyl)pyridine-3-carboxamide]: the EC30 entry is “+++ (“+++” means <3 uM)”.

For the molecule `CC(C)(C)c1ccc(C(=O)NS(=O)(=O)c2cccc(N)n2)c(-c2ccc(F)cc2)n1` [Compound 417, N-[(6-amino-2-pyridyl)sulfonyl]-6-tert-butyl-2-(4-fluorophenyl)pyridine-3-carboxamide], the EC30 result is “++ (“++” means between 3 uM and 10 uM)”.

For `Cc1cc(C)c(CN2Cc3c(-c4ccccc4)cccc3C2C(=O)NS(=O)(=O)c2cccc(N)n2)c(C)c1` (centres unmarked) [Compound 554, N-[(6-amino-2-pyridyl)sulfonyl]-4-phenyl-2-[(2,4,6-trimethylphenyl)methyl]isoindoline-1-carboxamide], the EC30 entry was “+++ (“+++” means <3 uM)”.

`COc1cc2cc(C(=O)NS(=O)(=O)c3cccc(N)c3)n(Cc3c(C)cc(C)cc3C)c2cc1OC` [Compound 598, N-(3-aminophenyl)sulfonyl-5,6-dimethoxy-1-[(2,4,6-trimethylphenyl)methyl]indole-2-carboxamide]: the EC30 entry is “++ (“++” means between 3 uM and 10 uM)”.

Regarding `COc1ncc(F)cc1-c1ccc(C(=O)NS(=O)(=O)c2cccc(N)n2)c(Oc2c(C)cc(C)cc2C)n1` [Compound 387, N-[(6-amino-2-pyridyl)sulfonyl]-6-(5-fluoro-2-methoxy-3-pyridyl)-2-(2,4,6-trimethylphenoxy)pyridine-3-carboxamide], the EC30 entry was “+++ (“+++” means <3 uM)”.

On to `Cc1cccc(C)c1Oc1nc(C(C)(C)C)ccc1C(=O)NS(=O)(=O)c1cccc(N)c1` [Compound 286, N-(3-aminophenyl)sulfonyl-6-tert-butyl-2-(2,6-dimethylphenoxy)pyridine-3-carboxamide], for which the EC30 entry was “+++ (“+++” means <3 uM)”.

For the molecule `Cc1cc(C)c(Oc2nc(C3CCC(F)(F)CC3)ccc2C(=O)NS(=O)(=O)c2cccc(N)n2)c(C)c1` [Compound 783, N-[(6-amino-2-pyridyl)sulfonyl]-6-(4,4-difluorocyclohexyl)-2-(2,4,6-trimethylphenoxy)pyridine-3-carboxamide], the 30% effect concentration (EC30) entry was “+++ (“+++” means <3 uM)”.

As for `Cc1cccc(C)c1Oc1nc(C(F)(F)F)ccc1C(=O)NS(=O)(=O)c1cccc(N)n1` [Compound 246, N-[(6-amino-2-pyridyl)sulfonyl]-2-(2,6-dimethylphenoxy)-6-(trifluoromethyl)pyridine-3-carboxamide], the EC30 entry was “++ (“++” means between 3 uM and 10 uM)”.

For `CC(C)(C)c1cc(C(=O)NS(=O)(=O)c2ccccc2)n(Cc2cccc(-n3cccc3)c2)n1` [Compound 108, N-(benzenesulfonyl)-5-tert-butyl-2-[(3-pyrrol-1-ylphenyl)methyl]pyrazole-3-carboxamide], the EC30 entry is “+++ (“+++” means <3 uM)”.

For `Cc1ccc(Oc2nc(-c3cnn(CC(C)C)c3)ccc2C(=O)NS(=O)(=O)c2cccc(N)n2)c(C)c1` [Compound 381, N-[(6-amino-2-pyridyl)sulfonyl]-2-(2,4-dimethylphenoxy)-6-(1-isobutylpyrazol-4-yl)pyridine-3-carboxamide], the EC30 entry was “++ (“++” means between 3 uM and 10 uM)”.

Consider `CC(C)COc1cc(F)cc(-c2ccc(C(=O)NS(=O)(=O)c3cccc(N)n3)c(N3CCCCC3)n2)c1` [Compound 380, N-[(6-amino-2-pyridyl)sulfonyl]-6-(3-fluoro-5-isobutoxy-phenyl)-2-(1-piperidyl)pyridine-3-carboxamide], for which the EC30 result is on record as “+++ (“+++” means <3 uM)”.

Turning to `Cc1cc(C)c(CN2CCc3ccccc3CC2C(=O)NS(=O)(=O)c2cccc(N3CCOCC3)n2)c(C)c1` (centres unmarked) [Compound 669, N-[(6-morpholino-2-pyridyl)sulfonyl]-3-[(2,4,6-trimethylphenyl)methyl]-1,2,4,5-tetrahydro-3-benzazepine-4-carboxamide], the 30% effect concentration (EC30) entry is on record as “+++ (“+++” means <3 uM)”.

`CC(C)(C)c1cc(C(=O)NS(=O)(=O)c2ccccc2)n(Cc2cc(C(F)(F)F)ccc2F)n1` [Compound 35, N-(benzenesulfonyl)-5-tert-butyl-2-[[2-fluoro-5-(trifluoromethyl)phenyl]methyl]pyrazole-3-carboxamide]: the EC30 entry is given as “+++ (“+++” means <3 uM)”.
